Results reported in patent US4563472A, “Iodoallyl and iodopropargyl substituted tetrazoles and anti-microbial compositions thereof” (Meiji Seika Kaisha, Ltd., priority 1982, dated 1986).
Converted amounts (≈) assume the structure as drawn. Like-named read-outs stand apart in the source and are kept apart here.

Tests used:
[1] = test system: Rhizopus nigricans S.N. 32; experiment: Antifungal Activity (in Industrial Field), MIC; type: cell-based; conditions: Rhizopus stolonifer, read-out: Minimal Inhibitory Conc. (MIC)
[2] = test system: Penicillium luteum ATCC 9644; experiment: Antifungal Activity (in Industrial Field), MIC; type: cell-based; conditions: Ascospirella lutea, ATCC9644, read-out: Minimal Inhibitory Conc. (MIC)
[3] = test system: Trichoderma T-1 ATCC 9645; experiment: Antifungal Activity (in Industrial Field), MIC; type: cell-based; conditions: ATCC9645, read-out: Minimal Inhibitory Conc. (MIC)
[4] = test system: Pullularia pullulans IAM F-24; experiment: Antifungal Activity (in Industrial Field), MIC; type: cell-based; conditions: IAMF24; Pullularia pullulans IAM F-24; read-out: Minimal Inhibitory Conc. (MIC)
[5] = test system: Trichophyton interdigitale; experiment: Antifungal Activity (in Medicinal Field), MIC; type: cell-based; conditions: read-out: Minimal Inhibitory Conc. (MIC)
[6] = test system: Aspergillus fumigatus IAM 2621; experiment: Antifungal Activity (in Industrial Field), MIC; type: cell-based; conditions: IAM2621, read-out: Minimal Inhibitory Conc. (MIC)
Mucor spinescens IAM Mu3 = experiment: Antifungal Activity (in Industrial Field), MIC; type: cell-based; conditions: IAMMU3, read-out: Minimal Inhibitory Conc. (MIC)
[7] = test system: Cladosporium herbarum IAM F-517; experiment: Antifungal Activity (in Industrial Field), MIC; type: cell-based; conditions: IAMF517, read-out: Minimal Inhibitory Conc. (MIC)
[8] = test system: Aspergillus terreus PQMD 82 j; experiment: Antifungal Activity (in Industrial Field), MIC; type: cell-based; conditions: PQMD82J, read-out: Minimal Inhibitory Conc. (MIC)
[9] = test system: Trichophyton metagrophytes 530324; experiment: Antifungal Activity (in Medicinal Field), MIC; type: cell-based
[10] = test system: Aspergillus fumigatus Saito; experiment: Antifungal Activity (in Medicinal Field), MIC; type: cell-based; conditions: read-out: Minimal Inhibitory Conc. (MIC)
Candida alubicans GA-24 = experiment: Antifungal Activity (in Medicinal Field), MIC; type: cell-based
[11] = test system: Chaetomium globosum ATCC 6205; experiment: Antifungal Activity (in Industrial Field), MIC; type: cell-based; conditions: ATCC6205, read-out: Minimal Inhibitory Conc. (MIC)
[12] = test system: Aspergillus flavus ATCC 6275; experiment: Antifungal Activity (in Industrial Field), MIC; type: cell-based; conditions: ATCC6275, read-out: Minimal Inhibitory Conc. (MIC)
[13] = test system: Cryptococcus neoformans Cr-1; experiment: Antifungal Activity (in Medicinal Field), MIC; type: cell-based; conditions: CR1, read-out: Minimal Inhibitory Conc. (MIC)
Alternaria kikuchiana = experiment: Antibacterial and Antifungal Activities (in Agricultural Field), MIC; type: cell-based; conditions: read-out: Minimal Inhibitory Conc. (MIC)
Pellicularia filamentosa = experiment: as above; type: cell-based; conditions: read-out: Minimal Inhibitory Conc. (MIC)
Glomerella cingulata = experiment: as above; type: cell-based; conditions: Colletotrichum gloeosporioides, read-out: Minimal Inhibitory Conc. (MIC)
Gibberella fujikuroi = experiment: as above; type: cell-based; conditions: Fusarium fujikuroi, read-out: Minimal Inhibitory Conc. (MIC)
[14] = test system: Colletotrichum lagenarium; experiment: as above; type: cell-based; conditions: Colletotrichum orbiculare, read-out: Minimal Inhibitory Conc. (MIC)
Botrytis cinerea = experiment: as above; type: cell-based; conditions: read-out: Minimal Inhibitory Conc. (MIC)
[15] = test system: Fusarium oxysporum f. lycopersici; experiment: as above; type: cell-based; conditions: read-out: Minimal Inhibitory Conc. (MIC)
Cochliobolus miyabeanus = experiment: as above; type: cell-based; conditions: Bipolaris oryzae, read-out: Minimal Inhibitory Conc. (MIC)
[16] = test system: Xanthomonas campestris pv. oryzae; experiment: microbe, parasite or virus in culture; type: cell-based; conditions: read-out: Minimal Inhibitory Conc. (MIC)
[17] = test system: Trichophyton mentagrophytes; experiment: Therapeutic experiment on trichophytosis in guinea pigs, visual observation; type: in vivo, guinea pigs (White Hartly-strain); conditions: 1% preparation, 0.25 ml once per day, 8 consecutive days
[18] = test system: Trichophyton mentagrophytes; experiment: Reducing culture positive rate of skin slices from infected guinea pigs; type: in vivo, guinea pigs (White Hartly-strain); design: concentration or dose not given beside the values; conditions: after 8 days application, non-treated 100
[19] = Trichophyton, 530324, read-out: Minimal Inhibitory Conc. (MIC)
[20] = Candida, GA24, read-out: Minimal Inhibitory Conc. (MIC)
[21] = Trichophyton metagrophytes 530324, read-out: Minimal Inhibitory Conc. (MIC)
[22] = GA24, Candida alubicans GA-24, read-out: Minimal Inhibitory Conc. (MIC)

Row | Structure (SMILES) | MIC [1] [µg/mL] | MIC [2] [µg/mL] | MIC [3] [µg/mL] | MIC [4] [µg/mL] | MIC [5] [µg/mL] | MIC [6] [µg/mL] | MIC (Mucor spinescens IAM Mu3) [µg/mL] | MIC [7] [µg/mL] | MIC [8] [µg/mL] | MIC [9, 19] [µg/mL] | MIC [10] [µg/mL] | MIC (Candida alubicans GA-24; [20]) [µg/mL] | MIC [11] [µg/mL] | MIC [12] [µg/mL] | MIC [13] [µg/mL] | MIC [9, 21] [µg/mL] | MIC (Candida alubicans GA-24; [22]) [µg/mL] | further results
1 | IC#CCn1cncn1 [1-(1'-iodopropyn-3'-yl)-1,2,4-triazole] | 3.13 (≈ 13.4 µM) | 3.13 (≈ 13.4 µM) | 3.13 (≈ 13.4 µM) | 3.13 (≈ 13.4 µM) | 0.78 (≈ 3.35 µM) | 50 (≈ 215 µM) | 6.25 (≈ 26.8 µM) | 3.13 (≈ 13.4 µM) | 0.39 (≈ 1.67 µM) | 1.56 (≈ 6.69 µM) | 0.78 (≈ 3.35 µM) | 3.12 (≈ 13.4 µM) | 25 (≈ 107 µM) | 6.25 (≈ 26.8 µM) | 0.78 (≈ 3.35 µM) |  |  | 
2 | O=[N+]([O-])c1cn(CC#CI)c(Cl)c1Cl [1-(1'-iodopropyn-3'-yl)-2,3-dichloro-4-nitropyrrole] |  | 0.78 (≈ 2.26 µM) | 3.12 (≈ 9.05 µM) | 6.25 (≈ 18.1 µM) | 0.39 (≈ 1.13 µM) | < 0.09 | 0.39 (≈ 1.13 µM) | 6.25 (≈ 18.1 µM) | 0.39 (≈ 1.13 µM) |  | 0.39 (≈ 1.13 µM) |  | 1.56 (≈ 4.52 µM) | 0.39 (≈ 1.13 µM) | 1.56 (≈ 4.52 µM) | 0.09 (≈ 0.261 µM) | 0.78 (≈ 2.26 µM) | MIC (Alternaria kikuchiana): 0.78 µg/mL (≈ 2.26 µM); MIC (Pellicularia filamentosa): > 50 µg/mL; MIC (Glomerella cingulata): 0.19 µg/mL (≈ 0.551 µM); MIC (Gibberella fujikuroi): 1.56 µg/mL (≈ 4.52 µM); MIC [14]: 1.56 µg/mL (≈ 4.52 µM); MIC (Botrytis cinerea): 0.39 µg/mL (≈ 1.13 µM); MIC [15]: 3.12 µg/mL (≈ 9.05 µM); MIC (Cochliobolus miyabeanus): 12.5 µg/mL (≈ 36.2 µM); MIC [16]: 0.39 µg/mL (≈ 1.13 µM)
3 | O=[N+]([O-])c1cc(Cl)n(CC#CI)c1 [1-(1'-iodopropyn-3'-yl)-2-chloro-4-nitropyrrole] |  | 0.39 (≈ 1.26 µM) | 3.12 (≈ 10 µM) | 1.56 (≈ 5.02 µM) |  | 0.19 (≈ 0.612 µM) | 0.78 (≈ 2.51 µM) | 1.56 (≈ 5.02 µM) | 0.19 (≈ 0.612 µM) |  |  |  | 12.5 (≈ 40.3 µM) | 0.39 (≈ 1.26 µM) |  |  |  | 
4 | O=[N+]([O-])c1ccn(CC#CI)c1 [1-(1'-iodopropyn-3'-yl)-3-nitropyrrole] |  |  |  |  | 0.78 (≈ 2.83 µM) |  |  |  |  |  | 0.09 (≈ 0.326 µM) |  |  |  | 0.09 (≈ 0.326 µM) | 0.19 (≈ 0.688 µM) | 0.78 (≈ 2.83 µM) | MIC (Alternaria kikuchiana): 1.56 µg/mL (≈ 5.65 µM); MIC (Pellicularia filamentosa): 50 µg/mL (≈ 181 µM); MIC (Glomerella cingulata): 0.78 µg/mL (≈ 2.83 µM); MIC (Gibberella fujikuroi): 3.12 µg/mL (≈ 11.3 µM); MIC [14]: 3.12 µg/mL (≈ 11.3 µM); MIC (Botrytis cinerea): 0.78 µg/mL (≈ 2.83 µM); MIC [15]: 3.12 µg/mL (≈ 11.3 µM); MIC (Cochliobolus miyabeanus): 6.25 µg/mL (≈ 22.6 µM); MIC [16]: 0.39 µg/mL (≈ 1.41 µM)
5 | IC#CCn1cccn1 [1-(1'-iodopropyn-3'-yl)pyrazole] | 1.56 (≈ 6.72 µM) | 0.78 (≈ 3.36 µM) | 3.13 (≈ 13.5 µM) | 3.13 (≈ 13.5 µM) | 0.39 (≈ 1.68 µM) | 1.56 (≈ 6.72 µM) | 1.56 (≈ 6.72 µM) | 3.13 (≈ 13.5 µM) | 0.78 (≈ 3.36 µM) | 0.39 (≈ 1.68 µM) | 0.78 (≈ 3.36 µM) | 3.12 (≈ 13.4 µM) | 12.5 (≈ 53.9 µM) | 1.56 (≈ 6.72 µM) | 0.78 (≈ 3.36 µM) |  |  | 
6 | IC#CCn1cnnn1 [1-(1'-iodopropyn-3'-yl)tetrazole] | 3.13 (≈ 13.4 µM) | 1.56 (≈ 6.67 µM) | 0.78 (≈ 3.33 µM) | 1.56 (≈ 6.67 µM) | 0.78 (≈ 3.33 µM) | 12.5 (≈ 53.4 µM) | 3.13 (≈ 13.4 µM) | 1.56 (≈ 6.67 µM) | 0.2 (≈ 0.855 µM) | 0.78 (≈ 3.33 µM) | 0.39 (≈ 1.67 µM) | 1.56 (≈ 6.67 µM) | 3.13 (≈ 13.4 µM) | 1.56 (≈ 6.67 µM) | 0.39 (≈ 1.67 µM) |  |  | 
7 | Cc1nnnn1CC(I)=C(I)I [1-(2',3',3'-triiodoallyl)-5-methyltetrazole] |  |  |  |  | 0.78 (≈ 1.55 µM) |  |  |  |  |  | 0.78 (≈ 1.55 µM) |  |  |  | 6.25 (≈ 12.5 µM) | 0.78 (≈ 1.55 µM) | 3.12 (≈ 6.22 µM) | 
8 | IC#CCn1ncnn1 [2-(1'-iodopropyn-3'-yl)tetrazole] | 6.25 (≈ 26.7 µM) | 3.13 (≈ 13.4 µM) | 3.13 (≈ 13.4 µM) | 6.25 (≈ 26.7 µM) | 1.56 (≈ 6.67 µM) | 25 (≈ 107 µM) | 3.13 (≈ 13.4 µM) | 3.13 (≈ 13.4 µM) | 0.78 (≈ 3.33 µM) | 1.56 (≈ 6.67 µM) | 1.56 (≈ 6.67 µM) | 3.12 (≈ 13.3 µM) | 25 (≈ 107 µM) | 6.25 (≈ 26.7 µM) | 0.78 (≈ 3.33 µM) |  |  | 
9 | CC(=O)Nc1nnn(CC(I)=C(I)I)n1 [2-(2',3',3'-triiodoallyl)-5-acetylaminotetrazole] |  |  |  |  | 3.12 (≈ 5.73 µM) |  |  |  |  |  | 12.5 (≈ 22.9 µM) |  |  |  | 100 (≈ 184 µM) | 3.12 (≈ 5.73 µM) | 100 (≈ 184 µM) | 
10 | IC(I)=C(I)Cn1nnc(-c2ccccc2)n1 [2-(2',3',3'-triiodoallyl)-5-phenyltetrazole] |  |  |  |  | 3.12 (≈ 5.53 µM) |  |  |  |  |  | 6.25 (≈ 11.1 µM) |  |  |  | 12.5 (≈ 22.2 µM) | 1.56 (≈ 2.77 µM) | 12.5 (≈ 22.2 µM) | 
11 | Clc1ccccc1C(c1ccccc1)(c1ccccc1)n1ccnc1 [chlotrimazol, 1-(O-chloro-α,α-diphenylbenzyl)imidazole, reference compound] |  |  |  |  |  |  |  |  |  |  |  |  |  |  |  |  |  | Therapeutic Effect: Desquamation [17]: effective; Therapeutic Effect: Thickening [17]: effective; Reducing Culture Positive Rate ([18]; 3 days culture): 75%; Reducing Culture Positive Rate ([18]; 5 days culture): 96%; Reducing Culture Positive Rate ([18]; 7 days culture): 96%
12 | O=[N+]([O-])c1c(Cl)cccc1-c1c[nH]cc1Cl [pyrrolnitrin, 3-chloro-4-(2'-nitro-3'-chlorophenyl)pyrrole, reference compound] |  |  |  |  |  |  |  |  |  |  |  |  |  |  |  |  |  | Therapeutic Effect: Thickening [17]: effective; Reducing Culture Positive Rate ([18]; 3 days culture): 62%; Reducing Culture Positive Rate ([18]; 5 days culture): 87%; Reducing Culture Positive Rate ([18]; 7 days culture): 87%
